Test results taken from US6566047B1, “Method for identifying neurite-growth promoting agents” (The Regents of the University of Colorado, priority 1998, dated 2003).
“Also recorded” adds a separate entry of the source. Each block holds one compound with its values, some of them ahead of it.

Assays:
[1] = system: growth cones in cultures of rat cerebral cortex; assay: Growth cone collapse assay in cortical neuron culture; format: cell-based; details: thrombin 100 nM; TRAP (100 mM); 12(S)-HETE 10^−7 M
Protocol: Neuron Culture. Cerebral cortices were dissected from embryonic day 18 Sprague-Dawley rats, cut into explants of less than 1 mm^3 and cultured on either poly-D-lysine-coated coverglass (Assistent) or poly-D-lvsine-coated tissue culture plastic. After 24 hours in B27 neurobasal medium (NB) supplemented with 10% fetal bovine serum, cultures were switched to serum-free B27/NB. The cultures were incubated at 37° C. in 5% CO2 in air. Sprouting neurons were observed readily on day 1. On day 2 or 3, long neurites were present, and the cultures were used for collapse experiments.
Actin Staining. After experimentation, cultures were fixed by slow infusion of fixative (4% paraformaldehyde in 0.1 M phosphate buffer, pH 7.4) into the culture dishes over 10 min (Pfenninger and Maylié-Pfenninger, J. Cell Biol. 89:53-546 (1981)). Thereafter, the fixative was removed by rinsing three times with phosphate-buffered saline (PBS) containing 1 mM glycine. Cultures were then blocked with PBS/1% bovine serum albumin (BSA) and permeabilized by incubation in 0.02% Triton X-100 for 5 min. After three washes in PBS/BSA, cultures were incubated with Texas-Red-conjugated phalloidin for 30 min. Unbound phalloidin was washed away by two PBS rinses, after which the coverglasses were mounted in Slow-Fade Light on microscope slides. Images were recorded on 35 mm film using a Zeiss Axiophot fluorescence microscope equipped with epiillumination.
Growth Cone Collapse Assay. Prior to repellent factor treatment, some of the day 2-3 explant cultures were pre-incubated (at 37° C.) with inhibitor or vehicle control (dimethylsulfoxide or ethanol) for 30-60 min. Cultures were then challenged with a repellent factor or vehicle control for 1-30 min. In some experiments, live cultures were photographed with a Zeiss IM 35 inverted photo microscope equipped with a stage heater, while in others cultures were fixed (as above) after 7 minutes of repellent factor treatment. Growth cone collapse was assessed quantitatively in aldehyde-fixed cultures by grading the degree of collapse in a large number of randomly selected growth cones.

protein kinase C (PKC) = assay: MARCKS phosphorylation by PKC in isolated GCPs; format: biochemical, rat; details: 30 sec @ 30° C.; 10^−6M or less free Ca^2+
Excerpt: FIG. 7A. Thrombin stimulates MARCKS phosphorylation in a 12-LOX-dependent manner. FIG. 7B. 12(S)-HETE stimulates MARCKS phosphorylation by PKC in isolated GCPs. […] Polypeptides were resolved by SDS-PAGE. MARCKS phosphorylation was quantified by phosphorimaging.

AT-2 cells = assay: Pseudopod length / retraction assay, AT-2 cells; format: cell-based, rat; details: for pseudopod retraction response of AT-2 cells: AA even at 10^−1M
Protocol: (§1) Pseudopod Morphometry. To study the effects of various agents on pseudopods on a short-term basis, we measured pseudopod lengths. Cells plated in 35-mm diameter dishes at low density (1×10^4 per dish) were incubated overnight, tie medium was changed, and the experiments were run four hours later. First, cultures were shifted to serum-free medium, which was replaced one hour later by serum-free medium with or without the various agents (thrombin, AA or HETEs). Care was taken to avoid heat and light inactivation of the eicosanoids. Culture dishes were placed on a Zeiss inverted microscope equipped with a heated stage and viewed with a 16×phase contrast objective lens. Randomly selected fields of the cultures, containing generally about 20 cells each, were recorded, digitized and stored in the computer at the onset of the experiment and at different times thereafter.
(§2) In some cases, individual cells were monitored over different periods of time immediately after introduction of the reagent, either by mixing it into the medium or by applying it locally to one end of the cell. Local application was done with a “puffer” system that expels microliter amounts of the desired solution from a micromanipulator-controlled micropipette tip. Cell morphology was recorded, and the captured images were analyzed with a Power Macintosh computer using NIH Image. Cell process length was measured from the center of the nucleus to the end of the process. Characterization of the frequencies of pseudopod lengths, at a fixed time for each of a sequence of concentrations of reagent, utilized a gamma regression model with an inverse quadratic linear predictor (McCullagh and Nelder, Generalized Linear Models 2d ed., pp. 291-292 (Chapman & Hall, 1989), separately fit to each concentration data set. Although no formal goodness-of-fit tests were carried out, in virtually every case there was good visual representation of the pattern of response (see FIG. 14). Most data, however, are shown as whisker-box plots, where the center point represents the 50%, the ends of the box the […] and 75%, and the “whiskers” the 5% and 95% quantiles (e.g., FIG. 11). Statistical comparisons of pseudopod lengths for different treatments were done by standard non-parametric techniques (Wilcoxon Rank Sum or Kruskal-Wallis Tests), as judged appropriate. Polynomial curve fittings were done by standard least-squares techniques. Statistical analyses and graphing were done with the use of SAS procedures: Reg, Phreg, Nparlway and Plot (SAS institute Inc., Cary, N.C.).

12(S)-HETE receptor = details: Liu et al. 1995; Herbertsson and Hammarstrom 1992; cited from earlier work
[2] = system: high motility (MAT-Lu, MAT-LyLu and AT-3) Dunning carcinoma cells; assay: Pseudopod length assay, high-motility Dunning carcinoma cells; format: cell-based, rat
Protocol: as §1
In some cases, individual cells were monitored over different periods of time immediately after introduction of the reagent, either by mixing it into the medium or by applying it locally to one end of the cell. […] Cell morphology was recorded, and the captured images were analyzed with a Power Macintosh computer using NIH Image. Cell process length was measured from the center of the nucleus to the end of the process. […]

MAT-Lu cells [3] = assay: Pseudopod morphometry (pseudopod length assay), MAT-Lu cells; format: cell-based, rat
Protocol: as §1, §2

PKC γ = PKC γ (Rattus norvegicus, UniProt P63319); details: Naor et al. 1988; cited from earlier work
growth cone PLC = assay: Phospholipase C assay (DG release) in GCPs; format: biochemical, rat; details: IGF-1, low nanomolar range; 10 μM free Ca^2+
Excerpt: (§3) All assays were run in triplicate.

MAT-Lu cells [4] = assay: Boyden chamber motility assay, MAT-Lu cells; format: cell-based, rat
Protocol: Boyden Chamber Motility Assays. Disposable transwells (Coming Costar, Cambridge, Mass.) of 6.5 mm diameter and 8 μm pore size were coated with 5 μg/ml laminin on both sides. The membranes were washed twice with Hank's balanced salt solution (HBSS) and then pre-incubated with growth medium containing 10% fetal bovine serum. Trypsinized cells (5×10^4) were plated into the upper well. After 1 hour the upper chamber was washed twice with HBSS, filled with serum-free medium and moved to a new lower chamber, also filled with serum-free medium, with or without thrombin and/or 0.75 nM insulin-like growth factor-1 (IGF-1). After incubation for 4 hrs, cells on the membrane were fixed and stained with a Diff-Quick kit (Baxter Scientific Products). Cells on the upper side were scraped off, the membranes were removed, mounted onto microscope slides and analyzed. Each filter was scanned twice at right angles under the light microscope with a 16×phase contrast objective lens. A continuous series of 20 frames for each filter was digitized using a high-resolution CCD camera (Kodak) and stored in a Power Macintosh computer. The two most peripheral pairs of frames from each scan were deleted so that 12 frames were analyzed for each filter. Cells that had crossed the membrane were counted and tabulated. The sum of the cells counted in the twelve frames was an individual data point.

growth cone PLA2 = assay: PLA2 assay in growth cone particles (GCPs); format: biochemical, rat
Protocol: Growth Cone Particle (GCP) Isolation. GCPs were prepared as described by Pfenninger et al. (1983) and modified by Lohse et al., Dev. Brain Res., 96:38-96 (1996). Briefly, 18-day fetal brains were homogenized in approximately 8 volumes of 0.32 M sucrose containing 1 mM MgCl2, 2 mM TES buffer, pH 7.3, and 3 μM aprotinin. A low-speed supernatant (1,660 g×15 min) was loaded onto a discontinuous sucrose density gradient With steps of 0.83 M and 2.66 M sucrose containing MgCl2 and TES. The gradients were spun to equilibrium at 242,000 g for 40 min in a vertical rotor (Vti50, Beckman). The GCP fraction at the 0.32/0.83 M sucrose interface was collected and used for the experiments described below.
as §3

cPLA2 = assay: PLA2 activity (14C-AA release) in MAT-Lu cells; format: biochemical, rat; details: 5 mM dithiothreitol
Protocol: MAT-Lu cells were plated at a density of 0.5×10^6 cells per flask (T-75) and grown as detailed above to approximately 25% confluency. On the day before the experiments, the serum level in the medium was dropped to 1%. Cells were fed with fresh 1% serum-medium 4 hrs prior to harvest. For harvesting, cells were rinsed with Ca^++,Mg^++-free HBSS, covered with 2 ml cold Ca^++-free modified Krebs buffer (220 mM sucrose, 50 mM NaCl, 5 mM KCl, 22 mM HEPES, 10 mM glucose. 1.2 mM NaH2PO4 and 1.2 mM MgCl2, pH 7.3), and placed on ice. Cells were scraped off, pelleted for 5 min at 200 rpm and re-suspended in a minimal volume of Krebs buffer. Aliquots were used to determine protein concentration (Biorad Assay) and phopholipase activity. To measure PLA2 activity 10-12 μg of cell protein was incubated with or without thrombin for 10 min on ice, ^14C-AA-labeled phospholipid substrate (7 μM. 40-60 mCi/mmol) was added, and the mixture was transferred to 37° for 20 min. The reaction was stopped by adding cold cliloroform/methanol (1:2 v/v). Lipid extraction followed by thin-layer chromatography (Negre-Aminou et al., J Neurochem 67:2599-2608 (1996)) isolated the reaction product (identified by co-migration with AA standard), which was then scraped off the plates and analyzed in a scintillation spectrometer (Beckman). In some experiments, especially those involving ^14C-AA-phosphatidylinositol as substrate, the diacylglycerol-containing band (identified by co-migration of standard) also was scraped and counted in order to measure phospholipase C (PLC) activity.

concentration at peak of MARCKS and GAP43 phosphorylation (biphasic) (protein kinase C (PKC)): about 10^−10 M
Compound: CCCCC/C=C\C[C@H](O)/C=C/C=C\C/C=C\CCCC(=O)O [12(S)-HETE, 12(S)-hydroxyeicosatetraenoic acid]
growth cone collapse, agent alone [1]: mimics the effects of thrombin and TRAP; also recorded: does indeed cause growth cone collapse
effect on AT-2 pseudopod length (AT-2 cells; 10^−11M): seems to increase pseudopod length
pseudopod retraction response of AT-2 cells (AT-2 cells): retraction was not observed
Kd (12(S)-HETE receptor): 1 nM
time required for saturation (12(S)-HETE receptor): 90 to 120 min
concentration at peak of pseudopod retraction ([2]; 15-min incubation): 10^−11 to 10^−10 M
time until pseudopod shortening nearly complete for most cells (MAT-Lu cells [3]; 10^−10M by medium replacement): about 15 min
time at which pseudopod lengths reach a minimum (MAT-Lu cells [3]; 10^−10 M by medium replacement, 73 pseudopods): about 17 min
length reduction for the median pseudopod length versus control (MAT-Lu cells [3]; at 10^−11 and 10^−10 M, 15 min, p<0.0001): > 45%
time until pseudopod absorbed completely into the cell (MAT-Lu cells [3]; local application, 10^−10M): about 15 min
onset of pseudopod detachment and shortening (MAT-Lu cells [3]; local application, 10^−10M, about 10 μm from cell process): ≤ 1 min

Compound: CCCCC/C=C\C/C=C\C/C=C\C/C=C\CCCC(=O)O [AA, arachidonic acid]
concentration at peak of biphasic PKC γ response (PKC γ): 12 µM
pseudopod retraction response of AT-2 cells (AT-2 cells): almost completely insensitive
pseudopod response to AA ([2]; all three high-motility cell types): responded to AA in the manner described for MAT-Lu cells
effect of agent alone on pseudopod length (MAT-Lu cells [3]; typically 15 min exposure): caused significant but reversible reduction of pseudopod length; also recorded: mimics the thrombin-induced length reduction; also recorded: causes statistically significant pseudopod shortening

stimulation of DG release in GCPs (growth cone PLC): approximately two-fold
Compound: IGF-1: insulin-like growth factor-1, positive chemotactic factor
Mat-Lu cells crossing filter in % of control +/− SEM (MAT-Lu cells [4]; IGF-1 (0.75 nM), 4 hr, thrombin 200 nM, CDC 126 nM): 184 +/− 15 % of control
enhancement of MAT-Lu migration across laminin-coated membrane (MAT-Lu cells [4]; IGF-1 in the lower chamber, 4 hr): about 1.8 fold
increase in MAT-Lu migration (MAT-Lu cells [4]; four-hour assays): about 80%
stimulation of AA release from PI (growth cone PLA2; IGF-1, low nanomolar range, 10 μM free Ca^2+): about 1.7 fold
net activity (pmol/min/mg protein) (growth cone PLA2; Table 3c, GCPs, substrate PI, BDNF 100, IGF-1 0.75, insulin 1, thrombin 200 nM, control 159 ± 6.2): 177 ± 14.5 pmol/min/mg protein

Compound: O[C@H](CS)[C@H](O)CS (racemic) [DTT, dithiothreitol]
effect of reducing agent on measured PLA2 activity (cPLA2): did not significantly inhibit the measured PLA2 activity
net activity (pmol/min/mg protein), 50 nM DTT (growth cone PLA2; Table 3b, GCPs, substrate PI, thrombin 100 nM or control): 66.0 ± 4.7 pmol/min/mg protein
